# From a polymer gas permeability compilation
Structure (SMILES),CH4 permeability [Barrer],CO2 permeability [Barrer],N2 permeability [Barrer],O2 permeability [Barrer],H2 permeability [Barrer]
*c1ccc(Oc2ccc(N3C(=O)c4cc(Oc5ccc(C)cc5)c(-c5cc6c(cc5Oc5ccc(C)cc5)C(=O)N(*)C6=O)cc4C3=O)cc2)cc1 (repeat unit),1.45,44,1.25,4.99,–
*C(=O)n1c(*)nc2cc3nc4c5ccc(*)c6c(*)ccc(c(=O)n4c3cc21)c65 (repeat unit),0.0017,0.12,0.00259,0.021,–
*CC(*)OC(C)=O (repeat unit),–,–,–,0.488,9.19
*c1ccc2c(c1)-c1nc3ccc(-c4ccc5c(c4)nc4n5C(=O)c5cc(C(c6ccc(-c7nc8cc(C(c9ccc%10oc(-c%11ccc(C(*)(C(F)(F)F)C(F)(F)F)cc%11)nc%10c9)(C(F)(F)F)C(F)(F)F)ccc8o7)cc6)(C(F)(F)F)C(F)(F)F)ccc5-4)cc3n1C2=O (repeat unit),46,1800,85,421,1990
*CCC(F)(Cl)C(*)(F)F (repeat unit),–,0.607,0.061,0.152,–
*CN1CN(*)Cc2cc3c(cc21)C1c2ccccc2C3c2cc(*)c(*)cc21 (repeat unit),562,6830,409,1900,6390
*CC(O)C* (repeat unit),0.019,0.4,0.015,0.1,–
*OC(=O)Oc1c(Cl)cc(C(C)(C)c2cc(Cl)c(*)c(Cl)c2)cc1Cl (repeat unit),0.223,6.68,0.36,2.29,–
*CC(CCl)O* (repeat unit),–,–,0.44,1.05,8.9
*Oc1ccc(S(=O)(=O)c2ccc(Oc3ccc(C(C)(C)c4ccc(*)cc4)cc3)cc2)cc1 (repeat unit),0.258,5.6,0.249,1.4,14
*CC(*)(Cl)Cl (repeat unit),–,0.029,0.000939,0.00519,–
*Oc1ccc(-c2c(-c3ccc(C#N)cc3)c(-c3ccc(C#N)cc3)c(-c3ccc4c(c3)Oc3c(C#N)c(*)c(*)c(C#N)c3O4)c(-c3ccc(C#N)cc3)c2-c2ccc(C#N)cc2)cc1O* (repeat unit),93,1300,52,205,734
*Nc1ccc(Oc2ccc(Oc3ccc(NC(=O)CN4C(=O)c5ccc(C(*)=O)cc5C4=O)cc3)cc2)cc1 (repeat unit),0.015,0.749,0.02,0.185,–
*Oc1c(C)cc(*)c([N+](=O)[O-])c1C (repeat unit),2.4,40.4,2.4,11.5,–
*c1ccc2c(c1)C1c3ccccc3C2c2cc(N3C(=O)c4ccc(C(c5ccc6c(c5)C(=O)N(*)C6=O)(C(F)(F)F)C(F)(F)F)cc4C3=O)ccc21 (repeat unit),7.2,202,10.7,43.9,329
*c1c(C)c(C(=O)O)c(C)c(N2C(=O)c3ccc(C(c4ccc5c(c4)C(=O)N(*)C5=O)(C(F)(F)F)C(F)(F)F)cc3C2=O)c1C (repeat unit),3.2,144,5.52,26.4,193
*c1ccc2c(-c3c(O)ccc4cc(N5C(=O)c6ccc(Oc7ccc8c(c7)C(=O)N(*)C8=O)cc6C5=O)ccc34)c(O)ccc2c1 (repeat unit),0.03,1.87,0.05,0.35,2.72
*Oc1ccc(-c2nn(-c3ccc(S(=O)(=O)c4ccc(*)cc4)cc3)c(=O)c3ccccc23)cc1 (repeat unit),–,0.92,0.027,0.15,2.4
*/C(C)=C(/*)[Si](C)(C)C(C)C (repeat unit),360,2200,170,460,1650
*c1ccc(Cc2ccc(N3C(=O)c4ccc(C(c5ccc6c(c5)C(=O)N(*)C6=O)(C(F)(F)F)C(F)(F)F)cc4C3=O)cc2)cc1 (repeat unit),0.344,15.2,0.686,3.88,44.7
*c1ccc2c(c1)C(=O)N(c1ccc(Oc3ccc(N4C(=O)c5ccc(-c6nc7ccc(Cc8ccc9nc(*)oc(=O)c9c8)cc7c(=O)o6)cc5C4=O)cc3)cc1)C2=O (repeat unit),–,0.26,–,–,2.56
*OCC(*)CCl (repeat unit),0.657,8,0.24,–,–

Structure (SMILES),CH4 permeability [Barrer],CO2 permeability [Barrer],N2 permeability [Barrer],O2 permeability [Barrer],H2 permeability [Barrer]
*c1ccc(Oc2ccc(S(=O)(=O)c3ccc(Oc4ccc(S(*)(=O)=O)cc4)cc3)cc2)cc1 (repeat unit),0.13,2.88,0.13,0.83,8.35
*Oc1ccc(-c2ccc(Oc3c(F)c(F)c(COC(C4CCCC(C(OCc5c(F)c(F)c(*)c(F)c5F)(C(F)(F)F)C(F)(F)F)C4)(C(F)(F)F)C(F)(F)F)c(F)c3F)cc2)cc1 (repeat unit),0.34,8.2,0.61,2.5,20
*CC(*)CC(C)C (repeat unit),–,92.6,–,32.3,–
*Oc1cc2c(cc1O*)C1(CC2(C)C)CC(C)(C)c2cc3oc4cc5c(=O)n(-c6c(C)c(C)c(N7C(=O)c8cc(*)c(*)cc8C7=O)c(C)c6C)c(=O)c5cc4oc3cc21 (repeat unit),27,520,23,85,360
*C(=C(*)c1ccc2c(ccc3ccccc32)c1)c1ccc([Si](C)(C)C)cc1 (repeat unit),500,2100,190,460,900
*Oc1ccc(-c2c(-c3ccc(C)cc3)c(-c3ccc(C)cc3)c(-c3ccc4c(c3)Oc3c(C#N)c(*)c(*)c(C#N)c3O4)c(-c3ccc(C)cc3)c2-c2ccc(C)cc2)cc1O* (repeat unit),132,1630,60,256,856
*c1ccc(Oc2ccc(C(C)(C)c3ccc(Oc4ccc(N5C(=O)c6ccc(-c7ccc8c(c7)C(=O)N(*)C8=O)cc6C5=O)cc4)cc3)cc2)cc1 (repeat unit),0.0846,2.8,0.0938,0.596,–
*=CC1CC(C=*)C2C(=O)N(C3CCCCC3)C(=O)C12 (repeat unit),0.8,13.7,0.52,2.21,16.1
*Oc1cc2c(cc1O*)C1(c3ccccc3-2)c2ccccc2-c2cc3c(cc21)Oc1c(C#N)c(*)c(*)c(C#N)c1O3 (repeat unit),622,8890,442,1620,4520
*c1cccc2c(-n3c(=O)c4cc5oc6cc7c(cc6oc5cc4c3=O)C3(CC(C)(C)c4cc5oc6cc8c(=O)n(*)c(=O)c8cc6oc5cc43)CC7(C)C)cccc12 (repeat unit),27,510,19,77,350
*c1ccc(Cc2ccc(N3C(=O)c4ccc(C(c5ccc6c(c5)C(=O)N(*)C6=O)(C(F)(F)F)C(F)(F)F)cc4C3=O)c(C)c2)cc1C (repeat unit),0.198,8.75,0.406,2.51,–
*C(=C(*)c1ccc2c(c1)C(C)(C)CCC2(C)C)c1ccccc1 (repeat unit),6600,11400,2700,3900,7700
*C1C(*)C2CC1C1C[CH]([Ge]([CH3])([CH3])[CH3])C21 (repeat unit),620,–,–,–,–
*C(=C(*)c1cccc(O)c1)c1ccc(C(C)(C)C)cc1 (repeat unit),490,3000,210,580,1700
*Oc1c(C)cc(C(C)(C)c2cc(C)c(OC(=O)c3cccc(C(*)=O)c3)c(C)c2)cc1C (repeat unit),0.472,12,0.579,3.26,38.6
*[Si](C)(C)CCCCCC[Si](*)(C)C (repeat unit),–,–,81,182,–
*Oc1ccc(S(=O)(=O)c2ccc(Oc3c(C)cc(C(c4cc(C)c(*)c(C)c4)(C(F)(F)F)C(F)(F)F)cc3C)cc2)cc1 (repeat unit),1.61,72,4,18,70.7
*CC(*)c1ccc(C([Si](C)(C)C)[Si](C)(C)C)cc1 (repeat unit),–,150,10.1,37.7,–
*OC1OC(CO[N+](=O)[O-])C(OC2OC(O[N+](=O)[O-])C(O*)C(O)C2O[N+](=O)[O-])C(O)C1O[N+](=O)[O-] (repeat unit),–,–,0.12,0.6,2
*C=CCCC* (repeat unit),430,2000,100,310,415
*c1c(C)cc2c(c1C)C1c3ccccc3C2c2cc(C)c(N3C(=O)c4ccc5c6c(ccc(c46)C3=O)C(=O)N(*)C5=O)c(C)c21 (repeat unit),122,1860,97,390,1480
